In article PMC12368987 (2025):

Legend:
[1] = system: PFOS_JYP_2 (DNA, aptamer) CTCTCGGGACGACGGGGTAACGGTTTGATCTCCTTCGTGTTCTGTCGTCCC; assay: ThT displacement fluorescence; details: pH 7.5; 400 nM aptamer, 10 μM thioflavin T; up to 50 μM
[2] = system: 16T (upper small loop without 16th thymine) (DNA, aptamer) AACGGTTTGATCTCCTCGTG; assay: ThT displacement fluorescence; details: pH 7.5; 400 nM aptamer, 10 μM thioflavin T; up to 50 μM
[3] = system: PFOS_JYP_2 with flanking region shortened to 4 base pairs (DNA, aptamer) CGACGGGGTAACGGTTTGATCTCCTTCGTGTTCTGTCG; assay: ThT displacement fluorescence; details: different PFOS concentrations; highest not stated in material
[4] = system: PFOS_JYP_1 (DNA, aptamer) CTCTCGGGACGACGGGTAGTCTGTGTATGCTCGCAAGCGTGCTGTCGTCCC; assay: ThT displacement fluorescence, Hill fit; details: pH 7.5, RT, 70 min; 400 nM aptamer; 10 μM thioflavin T displaced
[5] = system: PFOS_JYP_2 (DNA, aptamer) CTCTCGGGACGACGGGGTAACGGTTTGATCTCCTTCGTGTTCTGTCGTCCC; assay: ThT displacement fluorescence, Hill fit; details: pH 7.5, RT, 70 min; 400 nM aptamer; 10 μM thioflavin T displaced
[6] = system: PFOS_JYP_3 (DNA, aptamer) CTCTCGGGACGACGGGGGTTGCATCTTTATATGTTTCTTCTCTGTCGTCCC; assay: ThT displacement fluorescence, Hill fit; details: pH 7.5, RT, 70 min; 400 nM aptamer; 10 μM thioflavin T displaced
[7] = system: PFOS_JYP_4 (DNA, aptamer) CTCTCGGGACGACGGGGGGCTATTTCTTCATTCTCTGCTGACTGTCGTCCC; assay: ThT displacement fluorescence, Hill fit; details: pH 7.5, RT, 70 min; 400 nM aptamer; 10 μM thioflavin T displaced
[8] = system: PFOS_JYP_5 (DNA, aptamer) CTCTCGGGACGACGGCCAGATGGAGCTTTTATTTCCCTTCCTCGTCGTCCC; assay: ThT displacement fluorescence, Hill fit; details: pH 7.5, RT, 70 min; 400 nM aptamer; 10 μM thioflavin T displaced
[9] = system: PFOS_JYP_6 (DNA, aptamer) CTCTCGGGACGACGGCAGCTCAGCATCTTTGTTGCCCCTGACTGTCGTCCC; assay: ThT displacement fluorescence, Hill fit; details: pH 7.5, RT, 70 min; 400 nM aptamer; 10 μM thioflavin T displaced
[10] = system: PFOS_JYP_7 (DNA, aptamer) CTCTCGGGACGACCACCAGGTCTCGTCTTATTGGCTATGTGTTGTCGTCCC; assay: ThT displacement fluorescence, Hill fit; details: pH 7.5, RT, 70 min; 400 nM aptamer; 10 μM thioflavin T displaced
[11] = system: upper small loop of PFOS_JYP_2 (DNA, aptamer) AACGGTTTGATCTCCTTCGTG; assay: ThT displacement fluorescence, Hill fit; details: pH 7.5, RT, 70 min; 400 nM aptamer; 10 μM thioflavin T displaced
[12] = system: 16T (upper small loop without 16th thymine) (DNA, aptamer) AACGGTTTGATCTCCTCGTG; assay: ThT displacement fluorescence, Hill fit; details: pH 7.5, RT, 70 min; 400 nM aptamer; 10 μM thioflavin T displaced
[13] = system: 7T (upper small loop without 7th thymine) (DNA, aptamer) AACGGTTGATCTCCTTCGTG; assay: ThT displacement fluorescence, Hill fit; details: pH 7.5, RT, 70 min; 400 nM aptamer; 10 μM thioflavin T displaced
[14] = system: 9G (upper small loop without 9th guanine) (DNA, aptamer) AACGGTTTATCTCCTTCGTG; assay: ThT displacement fluorescence, Hill fit; details: pH 7.5, RT, 70 min; 400 nM aptamer; 10 μM thioflavin T displaced
[15] = system: 10A (upper small loop without 10th adenine) (DNA, aptamer) AACGGTTTGTCTCCTTCGTG; assay: ThT displacement fluorescence, Hill fit; details: pH 7.5, RT, 70 min; 400 nM aptamer; 10 μM thioflavin T displaced
[16] = system: 11T (upper small loop without 11th thymine) (DNA, aptamer) AACGGTTTGACTCCTTCGTG; assay: ThT displacement fluorescence, Hill fit; details: pH 7.5, RT, 70 min; 400 nM aptamer; 10 μM thioflavin T displaced
[17] = system: 15C (upper small loop without 15th cytosine) (DNA, aptamer) AACGGTTTGATCTCTTCGTG; assay: ThT displacement fluorescence, Hill fit; details: pH 7.5, RT, 70 min; 400 nM aptamer; 10 μM thioflavin T displaced
[18] = system: 7T, 16T (DNA, aptamer) AACGGTTGATCTCCTCGTG; assay: ThT displacement fluorescence, Hill fit; details: pH 7.5, RT, 70 min; 400 nM aptamer; 10 μM thioflavin T displaced
[19] = system: 9G, 16T (DNA, aptamer) AACGGTTTATCTCCTCGTG; assay: ThT displacement fluorescence, Hill fit; details: pH 7.5, RT, 70 min; 400 nM aptamer; 10 μM thioflavin T displaced
[20] = system: 10A, 16T (DNA, aptamer) AACGGTTTGTCTCCTCGTG; assay: ThT displacement fluorescence, Hill fit; details: pH 7.5, RT, 70 min; 400 nM aptamer; 10 μM thioflavin T displaced
[21] = system: 11T, 16T (DNA, aptamer) AACGGTTTGACTCCTCGTG; assay: ThT displacement fluorescence, Hill fit; details: pH 7.5, RT, 70 min; 400 nM aptamer; 10 μM thioflavin T displaced
[22] = system: 15C, 16T (DNA, aptamer) AACGGTTTGATCTCTCGTG; assay: ThT displacement fluorescence, Hill fit; details: pH 7.5, RT, 70 min; 400 nM aptamer; 10 μM thioflavin T displaced
[23] = system: PFOS_JYP_2 upper loop, ninth guanine mutated to cytosine (DNA, aptamer) AACGGTTTCATCTCCTTCGTG; assay: ThT displacement fluorescence, Hill fit; details: pH 7.5, RT, 70 min; 400 nM aptamer; 10 μM thioflavin T displaced
[24] = system: PFOS_JYP_6 (72 nt, qPCR) (DNA, aptamer) GGAGGCTCTCGGGACGACGGCAGCTCAGCATCTTTGTTGCCCCTGACTGTCGTCCCGATGCTGCAATCGTAA; assay: qPCR Ct change of aptamer-gold nanoparticle complex; details: Mg2+ 2 mM (PBS); 1x PBS, pH 7.5; 100 pmol aptamer; 0-400 pM PFOS

CCCCCCCCS(=O)(=O)O
binding [1]: no

O=C(O)C(F)(F)C(F)(F)C(F)(F)C(F)(F)C(F)(F)C(F)(F)C(F)(F)C(F)(F)C(F)(F)F
binding [1]: weak

O=C(O)C(F)(F)C(F)(F)C(F)(F)C(F)(F)C(F)(F)C(F)(F)C(F)(F)C(F)(F)F
binding [1]: weak
binding [2]: weak

O=C(O)C(F)(F)C(F)(F)C(F)(F)C(F)(F)C(F)(F)C(F)(F)C(F)(F)F
binding [1]: weak
binding [2]: weak

O=C(O)C(F)(F)C(F)(F)C(F)(F)F
binding [1]: no

O=S(=O)(O)C(F)(F)C(F)(F)C(F)(F)C(F)(F)C(F)(F)C(F)(F)C(F)(F)C(F)(F)F
binding [3]: no
KD [4]: 6.93 ± 0.15 µM
KD [5]: 6.76 ± 0.20 µM
KD [6]: 7.82 ± 0.19 µM
KD [7]: 6.87 ± 0.06 µM
KD [8]: 7.33 ± 0.21 µM
KD [9]: 7.69 ± 0.04 µM
KD [10]: 8.42 ± 0.34 µM
KD [11]: 11.21 ± 0.16 µM
KD [12]: 6.77 ± 0.16 µM
KD [13]: 7.99 ± 0.50 µM
KD [14]: 8.86 ± 0.53 µM
KD [15]: 8.30 ± 0.65 µM
KD [16]: 8.60 ± 0.27 µM
KD [17]: 7.57 ± 0.12 µM
KD [18]: 7.97 ± 0.49 µM
KD [19]: 7.35 ± 0.42 µM
KD [20]: 8.19 ± 0.04 µM
KD [21]: 8.82 ± 0.37 µM
KD [22]: 7.86 ± 0.18 µM
KD [23]: 18.23 ± 1.92 µM
binding [24]: yes

O=S(=O)(O)C(F)(F)C(F)(F)C(F)(F)C(F)(F)C(F)(F)C(F)(F)F
binding [1]: weak
binding [2]: weak

O=S(=O)(O)C(F)(F)C(F)(F)C(F)(F)C(F)(F)F
binding [1]: no
